From US20120156704A1, “IN VITRO METHOD FOR DETECTING GP91PHOX AS A MARKER OF OXIDATIVE STRESS” (BIOS INTERNATIONAL S.R.L., priority 2009, published 2012)

Key:
platelets = test: sgp91phox in supernatant of platelets by ELISA with the monoclonal antibody of the invention; format: cell-based, human
platelet NADPH oxidase = test: Platelet NADPH oxidase activation: ROS production in AA-stimulated platelets by cytofluorimetry; format: cell-based, human; settings: AA 0.5 mM
Description: To obtain platelet rich plasma (PRP) from HC and HS patients, samples were centrifuged 15 min at 180 g. To avoid leukocyte contamination, only the top 75% of the PRP was collected. Platelet pellet was suspended in HEPES buffer, pH 7.4 (2×10^8 platelets/mL, unless otherwise noted) and processed differently according to the type of experiment to be carried out.
To test NADPH oxidase activity, the levels of ROS in platelets from 5 human healthy subjects were measured by cytofluorimetry in the presence and in the absence of specific NADPH oxidase inhibitors, such as apocynin and the gp91^phox blocking peptide gp91ds-tat. Platelets were incubated with 2′,7′-dichlorofluorescin diacetate […] for 15 minutes at 37° C. After incubation, 100 μl of the sample was treated with arachidonic acid (AA, 0.5 mM) in presence or less of apocynin (100 μM) or the gp91^phox specific blocking peptide (gp91ds-tat, 50 μM). Then 10 μl of each sample was diluted with 1 ml of PBS and analyzed by flow cytometry. Basal OFR level in resting platelets was expressed as mean fluorescence (MF), AA-induced OFR production was expressed as stimulation index (S.I.=mean level of fluorescence in AA-stimulated platelet/mean level of fluorescence in unstimulated platelets) (Pignatelli P et al. Blood (1998) 95:484-490.

[1] = system: polymorphonuclear leukocytes (PMN); test: sgp91phox in supernatant of PMN by ELISA; format: cell-based, human; settings: PMA 10 μM; unstimulated 1.53±0.66
Description: Polymorphonuclear leukocytes (PMN) were isolated from freshly taken EDTA-blood from healthy volunteers (n=5, healthy subjects) by dextran enhanced sedimentation of red blood cells, Ficoll-Histopaque density centrifugation, lysis of remaining erythrocytes with distilled water and washing of cells with Hank's balanced salt solution (HBSS) in the absence of any divalent cations. Finally, the cell pellet was suspended in 1 ml of HBSS and stimulated with or without 10 μM of phorbol 12-myristate 13-acetate (PMA). To evaluate sgp91phox in PMN the supernatant was analyzed by ELISA method as above reported.
(§1) To evaluate the source of sgp91phox we isolated platelets, PMN and lymphocytes/monocytes from the same blood sample.

platelet gp91phox = test: gp91phox expression on platelets by flow cytometry in the clinical study; format: in vivo, human; settings: after 30 days of treatment
Description: To evaluate gp91^phox expression on platelets, 50 μl of stabilized whole blood (see above) were incubated for 30 minutes with 5 μl of monoclonal antibody against gp91^phox (20 μg/ml; Santa Cruz), and 5 μl of PE-conjugated monoclonal antibody against CD61 (Coulter) (20 μg/ml), respectively, as described in Martino F. et al., PEDIATRICS (2008), supra. The samples incubated with the monoclonal antibody against gp91^phox were then incubated with a secondary IgG FITC-conjugated antibody against mouse. After incubation, 1 ml of 1× PBS was added to proceed with the cytofluorimetric analysis.
Isotypic controls were carried out by preparing a sample with a non-specific anti-mouse IgG-FITC e IgG1-PE with the same ratio f/p for FITC e PE. The adequate concentration of the monoclonal antibodies used was determined in preliminary tests (not shown).
All the samples were analyzed within 15 minutes from dilution. FITC fluorescence was detected with an Epics XL-MCL cytometer (Coulter, Milan Italy) at 525 nm, while PE fluorescence was detected at 575 nm. All the parameters were grouped with a 4-decade logarithmic amplification.
Spectral overlap was balanced by fluorescence compensation, as defined in preliminary tests. […] Platelets and platelet-platelet aggregates were identified by logical gating according to their CD61 phycoerythrin fluorescence and forward scatter characteristics. […]

sgp91phox = sgp91phox in sera of the clinical study by the ELISA assay of the invention; format: in vivo, human; settings: group B
Description: The samples tested were sera from the same sampling of the clinical study of Example 2, stored frozen at −80° C. up to the use.
The proprietary primary policlonal antibody against SEQ ID NO 1 and the primary monoclonal antibody against SEQ ID NO 3 (i.e., the proprietary antibody of the present invention from the hybridoma deposited at ATCC on Jun. 10, 2010 under No. SD-6311) already described above were diluted 1:100 with coating buffer (catalog. C3041, Sigma Chemicals) and 100 μl of this primary antibody solution were placed in 96-well ELISA plates for 1 h at room temperature (RT). After incubation the content of each well in the plates was removed and the wells were washed three times with washing buffer (Tris-buffered saline 50 mM, pH 8.0, Tween 20; catalog. T9039, Sigma Chemicals).
Subsequently, 200 μl of saturation buffer containing 1% BSA (catalog T6789, Sigma Chemicals) were added to the wells for 30 minutes at RT. The wells were then washed three times with the washing buffer, as above.
100 μl of standard or of sample to be assayed were then added to the wells and the incubation was carried out for 1 h at RT.
A standard curve was obtained by using increasing concentrations of the gp91^phox peptide of SEQ ID NO 1 or of the peptide of SEQ ID NO 3 (i.e., 64 pg/ml; 32 pg/ml; 16 pg/ml; 8 pg/ml) obtained by diluting the peptides in buffer, and incubated for 1 h see FIG. 4, panel A and panel B.
100 μl of a secondary goat-anti-rabbit IgG-HRP antibody (Santa Cruz, catalog sc2004) or of a secondary goat anti-mouse IgG-HRP antibody (Santa Cruz, catalog sc 2060) diluted 1:100 with coating buffer, were then incubated at RT for 1 h.
After aspirating the contents of the wells and washing three times with washing buffer, as described above, 100 μl of substrate (Santa Cruz, catalog SK-4400) were added to the wells for 30 minutes at RT. At the end of the incubation, 100 μl of H2SO4 2M (Merck, catalog 30148297) were also added to the wells. Subsequently, reading of the developed color was carried out with a spectrophotometer at 450 nm.
The final concentration of the samples were calculated by using the proper standard curve obtained with a gp91^phox peptide, as described above.

[2] = system: hypercholesterolemic patients; settings: group B, diet + atorvastatin 10 mg/day, end of 30 days, p<0.001
lymphocytes/monocytes = test: sgp91phox in supernatant of lymphocytes/monocytes by ELISA; format: cell-based, human; settings: LPS 100 ng/ml; unstimulated 1.11±0.55
Description: Blood samples were collected in heparinized tubes (10 IU/ml). Lynphocytes/Monocyte were isolated after centrifugation of the blood from healthy volunteers (n=5, healthy subjects) with a polysucrose-sodium diatrizoate solution, 1.077 g/ml density and 280 mOsm osmolarity (Lymphoprep; Nycomed, Oslo, Norway) at 800 g at 20° C. The Lynphocytes/Monocyte cell layer was collected and the cells were thus washed two times in a solution of cold phosphate-buffered saline (pH 7.2), supplemented with 1% fetal calf serum and 2 mmol/l EDTA (Sigma-Aldrich, Milano, Italy). The cell suspension was stimulated with or without lipopolysaccharide (100 ng/ml) (LPS), sgp91 content in the supernatant was evaluated by ELISA method as above reported.
as §1

[3] = 30 days atorvastatin vs baseline

CCCCC/C=C\C/C=C\C/C=C\C/C=C\CCCC(=O)O [AA, arachidonic acid]
sgp91phox in supernatant of stimulated platelets (platelets; AA-stimulated, unstimulated 1.18±0.84): 7.05 ± 2.04 pg/mL | ROS production after platelet activation (platelet NADPH oxidase): increase

CCCCCCCCCCCCCC(=O)O[C@@H]1[C@@H](C)[C@@]2(O)[C@@H](C=C(CO)C[C@]3(O)C(=O)C(C)=C[C@@H]23)[C@@H]2C(C)(C)[C@]12OC(C)=O [PMA, phorbol 12-myristate 13-acetate]
sgp91phox in supernatant of stimulated PMN [1]: 11.85 ± 3.23 pg/mL

COc1cc(C(C)=O)ccc1O [apocynin]
levels of sgp91phox shed in the cell medium of AA-activated platelets (platelets; specific NADPH oxidase inhibitors, ELISA of supernatant): decrease | effect on AA-induced ROS production in platelets (platelet NADPH oxidase; apocynin 100 μM, gp91ds-tat 50 μM): inhibited

CC(C)c1c(C(=O)Nc2ccccc2)c(-c2ccccc2)c(-c2ccc(F)cc2)n1CC[C@@H](O)C[C@@H](O)CC(=O)O [atorvastatin]
variation in platelet gp91phox after treatment (platelet gp91phox): no significant variation | reduction in sgp91phox, ELISA with monoclonal antibody (SD-6311) (sgp91phox; [3]): −25% | reduction in sgp91phox, ELISA with polyclonal antibody (sgp91phox; [3]): −33% | sgp91phox serum level, ELISA with monoclonal antibody (SD-6311) (sgp91phox; end of 30 days atorvastatin, from 32.5±4.6 at baseline, p<0.001): 23.5 ± 6.5 pg/mL | sgp91phox serum level, ELISA with polyclonal antibody (sgp91phox; end of 30 days atorvastatin, from 36.6±5.6 at baseline, p<0.001): 24.5 ± 7.7 pg/mL | serum total cholesterol ([2]; from 276±46 at baseline): 208 ± 38 mg/dL | urinary isoprostanes levels ([2]; from 383±51 at baseline): 241±58 pg/mg of creatinine

lipopolysaccharide [LPS]
sgp91phox in supernatant of stimulated lymphocytes/monocytes (lymphocytes/monocytes): 7.5 ± 2.64 pg/mL
